Source: patent publication US20210147481A1, “PEPTIDE-BASED INHIBITORS OF MARK FAMILY PROTEINS” (Ohio Universtiy, priority 2017, published 2021)
Peptide text beside a SMILES is read from it.

Key:
MARK2 [1] = target: MARK2 (Homo sapiens, UniProt Q7KZI7); experiment: In vitro phosphorylation assay: inhibition of MARK2-mediated phosphorylation of hTau-K18 (western blot, α-Tau pSer262); assay type: biochemical
Protocol: The ability for MARK2 to phosphorylate hTau K18 was evaluated in vitro by incubating MARK2 with hTau-K18 in the presence or absence of ATP (FIG. 1B). All phosphorylation reactions were carried out for 60 minutes at 32° C. in phosphorylation buffer (50 mM Tris-HCl, 5 mM MgCl2, 2 mM EGTA, 0.5 mM DTT, 0.5 mM benzamidine HCl, 0.5 mM PMSF, pH 8.0). Following the reaction, phosphorylated hTau-K18 proteins were separated by SDS-PAGE and identified by western blot using antibodies specific for hTau pSer262 (FIG. 1B, lanes 1 and 2). As a loading control, total hTau-K18 in each lane was quantified by western blot using antibodies specific for non-phosphorylated hTau-K18 (FIG. 1B, lower image). To ensure that the phosphorylation of hTau-K18 was a result of kinase activity and not auto-phosphorylation by ATP, hTau-K18 was incubated in the absence of MARK2 with or without ATP (FIG. 1B, lanes 3 and 4).
The ability for the tR1 peptide to act as an inhibitor of MARK2-mediated phosphorylation of hTau-K18 in vitro was examined. To test this, MARK2 and hTau-K18 were incubated in the presence of varying concentrations of tR1 for 60 minutes at 32° C. in phosphorylation buffer. Following the reaction, the proteins were separated by SDS-PAGE and identified by Western blot using antibodies specific for hTau pSer262 (FIG. 1C). Total hTau-K18 in each lane was quantified using antibodies specific for non-phosphorylated hTau-K18 (FIG. 1C, lower image).
Phosphorylation assays were performed in 30 μL phosphorylation buffer (50 mM Tris-HCl, 5 mM MgCl2, 2 mM EGTA, 0.5 mM DTT, 0.5 mM benzamidine HCl, 0.5 mM PMSF, pH 8.0) and depending on the experimental conditions. 100 μM ATP, 10 μM hTau K18, 10 nM MARK2, and 10 μM tR1 were added to the reaction mixture. The reaction was carried out for 1 hour at 32° C. […] Images were acquired by a Bio-Rad Gel Doc EZ imager and the band intensity was quantified using Image Lab Software c5.2.1 (Bio-Rad).

MARK2 [2] = target: MARK2 (Rattus norvegicus, UniProt O08679); experiment: Immunofluorescence of PAO-induced MARK2-mediated tau Ser262 phosphorylation in neurons; assay type: cell-based
MARK2 (Rattus norvegicus, UniProt O08679), sequence (O08679 whole entry): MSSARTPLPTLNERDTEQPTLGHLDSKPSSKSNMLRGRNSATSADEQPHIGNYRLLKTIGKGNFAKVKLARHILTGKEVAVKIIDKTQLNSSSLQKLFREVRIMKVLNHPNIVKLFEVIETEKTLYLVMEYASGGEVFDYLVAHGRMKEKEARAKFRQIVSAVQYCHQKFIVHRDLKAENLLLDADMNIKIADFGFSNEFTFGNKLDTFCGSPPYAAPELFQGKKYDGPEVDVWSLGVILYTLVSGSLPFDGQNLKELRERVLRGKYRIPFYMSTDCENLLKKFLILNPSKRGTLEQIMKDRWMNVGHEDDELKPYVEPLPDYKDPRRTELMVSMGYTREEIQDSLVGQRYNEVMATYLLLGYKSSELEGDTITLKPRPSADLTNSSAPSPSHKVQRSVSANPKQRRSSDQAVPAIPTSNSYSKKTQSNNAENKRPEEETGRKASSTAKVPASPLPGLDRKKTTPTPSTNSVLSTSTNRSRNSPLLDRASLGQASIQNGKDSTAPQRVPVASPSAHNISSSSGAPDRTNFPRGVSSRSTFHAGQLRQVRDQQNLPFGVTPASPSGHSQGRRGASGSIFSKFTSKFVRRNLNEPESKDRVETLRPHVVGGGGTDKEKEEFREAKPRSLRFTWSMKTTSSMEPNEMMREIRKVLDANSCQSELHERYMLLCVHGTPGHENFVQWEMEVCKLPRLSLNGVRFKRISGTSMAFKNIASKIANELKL

MARK2 (Homo sapiens, UniProt Q7KZI7), sequence (Q7KZI7 whole entry): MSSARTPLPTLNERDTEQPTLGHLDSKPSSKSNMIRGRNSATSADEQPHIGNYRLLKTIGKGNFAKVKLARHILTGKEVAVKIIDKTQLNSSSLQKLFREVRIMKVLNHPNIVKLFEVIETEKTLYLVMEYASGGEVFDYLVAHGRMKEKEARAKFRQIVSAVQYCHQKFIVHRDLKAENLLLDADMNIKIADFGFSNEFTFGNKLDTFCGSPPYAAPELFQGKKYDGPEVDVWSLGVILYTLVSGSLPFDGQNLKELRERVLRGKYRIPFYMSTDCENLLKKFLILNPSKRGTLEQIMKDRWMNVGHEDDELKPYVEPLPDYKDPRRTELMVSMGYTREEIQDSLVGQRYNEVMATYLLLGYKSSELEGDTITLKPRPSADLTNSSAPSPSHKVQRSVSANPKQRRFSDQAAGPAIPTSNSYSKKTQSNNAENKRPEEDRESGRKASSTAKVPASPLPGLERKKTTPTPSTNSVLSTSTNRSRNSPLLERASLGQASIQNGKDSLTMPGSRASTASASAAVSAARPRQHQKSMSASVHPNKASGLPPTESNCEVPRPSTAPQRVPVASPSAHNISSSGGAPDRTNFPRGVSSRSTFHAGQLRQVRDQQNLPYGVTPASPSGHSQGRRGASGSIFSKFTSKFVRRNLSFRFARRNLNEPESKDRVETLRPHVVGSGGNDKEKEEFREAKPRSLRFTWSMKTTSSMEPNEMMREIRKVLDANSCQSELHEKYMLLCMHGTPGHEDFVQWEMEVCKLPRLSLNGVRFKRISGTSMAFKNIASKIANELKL

With `CC[C@H](C)[C@H](NC(=O)[C@H](CCCCN)NC(=O)[C@H](CO)NC(=O)[C@H](CCCCN)NC(=O)[C@@H](NC(=O)[C@H](CC(N)=O)NC(C)=O)C(C)C)C(=O)NCC(=O)N[C@@H](CO)C(=O)N[C@H](C(=O)N[C@@H](CCC(=O)O)C(=O)N[C@@H](CC(N)=O)C(=O)N[C@@H](CC(C)C)C(=O)N[C@@H](CCCCN)C(N)=O)[C@@H](C)O` [tR1, NVKSKIGSTENLK] (Ac-NVKSKIGSTENLK-NH2) the “established in vitro inhibitory concentration” value (MARK2 [1]) was 10 µM, the inhibition at 50 µM (MARK2 [1]; 50 μM tR1, 60 minutes at 32° C. in phosphorylation buffer, read-out: inhibition of MARK2 activity (hTau-K18 Ser262 phosphorylation, densitometry)) was no more than 66% and the “concentrations at which tR1 effectively inhibits MARK2-mediated phosphorylation of hTau-K18” value (MARK2 [1]; 60 minutes at 32° C., western blot) was “greater than 0.5 μM”. The “reduction in tau Ser262 phosphorylation” value (MARK2 [2]; 10 μM tR1, co-treated with bafilomycin A1 or 100 μM chloroquine, 5 μM PAO) was “modest reduction in tau phosphorylation”, the “loss in tau pSer262 signal compared to cells treated with PAO alone” value (MARK2 [2]; 30 μM peptide and bafilomycin, PAO) was roughly 50% and the “loss in tau pSer262 signal” value (MARK2 [2]; 30 μM peptide and chloroquine, PAO) was “loss in signal comparable to that of baseline”. The “inhibition of MARK2-mediated phosphorylation of tau Ser262” value (MARK2 [2]; 30 μM tR1, co-treated with bafilomycin A1 or 100 μM chloroquine, 5 μM PAO) was “near complete inhibition” and the “inhibition of MARK2-mediated phosphorylation of tau Ser262” value (MARK2 [2]; tR1 peptides alone (no endosome disruptor), 5 μM PAO) was “did not inhibit”.
